Laboratory results from patent US20090061515A1, “Methods of inhibiting or suppressing cellular proliferation” (priority 2007, published 2009).

System: Human Coronary Artery Endothelial Cells (HCAEC)
Assay: CyQuant cell number / proliferation, HCAEC (Example 7)
Format: cell-based
Details: 1 mg/ml, after 96 hours post agent treatment, not following 24 hours exposure only
Method: Cells were exposed to the test compounds for 24 to 48 hours and then allowed to grow for 96 hours in regular media (without test compound). The final concentrations for cell treatment were as follows: compounds 13358-18-1, 13358-18-2, 13358-18-4, and 13358-18-6 were evaluated at 10 mg/ml, 1 mg/ml, 100 micrograms/ml, and 10 micrograms/ml. Compounds 13358-18-3 and 13358-18-5 were evaluated at 50 mg/ml, 10 mg/ml, 1 mg/ml, and 100 micrograms/ml.
Three assays were used to look at the proliferation, viability and cytotoxicity of the compounds on the cells. A non-radioactive cytotoxicity assay available under the trade designation CytoTox 96 from Promega Corporation (Madison, Wis.) is designed to determine the cytotoxicity of a substance by quantitatively measuring the presence of lactate dehydrogenase (LDH) in cell culture supernatant. LDH is released in cells that are undergoing cell death and the assay converts it to a red formazan product that can allows for the proportional amount of LDH absorbance to be read. A cell proliferation assay available under the trade designation CyQuant from Invitrogen Corporation (Carlsbad, Calif.) determines the density of cells in culture by eluding a green fluorescent dye which fluoresces when bound to cellular nucleic acids. The amount of nucleic acid present is proportional to the amount of living cells in culture, therefore an accurate cell count can be obtained. A luminescent cell viability assay available under the trade designation CellTiter-Glo from Promega Corporation (Madison, Wis.) uses the amount ATP present in the cell cytoplasm as an indicator for metabolic activity. The amount of ATP present is proportional to the measured amount of a luminescent signal. This assay was used to confirm if the cells are still viable after exposure to the test compounds.

Q: How did the “cell number and viability” value turn out when `CC(=O)CCC(O)C(O)c1ccccc1` (stereo not drawn) [Compound 13358-18-1, 5,6-dihydroxy-6-phenyl-hexan-2-one] was run?
A: The value was “some antiproliferative effect with viable cells”.

Q: Which “cell number and viability” value does the source give for `O=C1CCCCC1CC(O)CO` (stereo not drawn) [Compound 13358-18-4, 2-(2′,3′-dihydroxypropyl)-cyclohexanone] here?
A: Its value is “some antiproliferative effect with viable cells”.

Q: `CC(=O)OCC(O)CO` (stereo not drawn) [Compound 13358-18-5, 2,3-dihydroxy-propyl acetate] was tested. Which “cell number and viability” value did it give?
A: Its value is “some antiproliferative effect with viable cells”.
